Assay [1] has as its system HEK293 (human normal embryonic kidney). The assay is described as follows: Cell proliferation inhibition, Cell Titer-Glo, HEK293. It counts as cell-based. The following applies: cell proliferation assay, HEK293 cells, read-out: HEK 293 IC50. The method in brief: (§1)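 Cells seeded at 2500-5000 per well with serially diluted compound for typically 3 days. Viable cells measured by ATP luminescence (Cell Titer-Glo); IC50 from proliferation-inhibition curves.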
On the technique in general: Cellular ATP, detected with luciferase, serves as a proxy for viable cell number.

The subject of assay [2] is CHO (chinese hamster ovary). In words: Cell proliferation inhibition, Cell Titer-Glo, CHO. It counts as cell-based. The following applies: Cricetulus griseus; cell proliferation assay, CHO cells. Put shortly:
as §1

Assay [3] deals with T1, TrkA (Homo sapiens, UniProt P04629).
T1 construct: 6×His- or GST-tagged kinase domain fragments of the corresponding RTKs expressed in baculovirus system; host or cells: baculovirus system
In words: Tyrosine kinase assay (Kinase-Glo or AlphaScreen), TrkA. The conditions noted are these: biochemical tyrosine kinase assay. How it is done:
To determine inhibition of several tyrosine kinases, such as IGF1R, InsR, Alk, TrkA and Jak2, kinase assays are conducted using either Kinase-Glo (Promega) or AlphaScreen (PerkinElmer) kinase assay platforms. The Kinase-Glo Luminescent Kinase Assay is a homogeneous method for measuring kinase activity by determining the amount of ATP remaining after a kinase reaction. The luminescent signal is proportional to the amount of ATP and inversely proportional to the amount of kinase activity. Tyrosine kinase PT66 AlphaScreen Assay is a high-sensitivity homogeneous, anti-phosphotyrosine antibody-mediated luminescent proximity method measuring, incorporation of phosphate in synthetic poly(Glu-Tyr) substrate. The kinase preparations used consist of purified recombinant, 6×His- or GST-tagged kinase domain fragments of the corresponding RTKs expressed in baculovirus system.
The IGF1R tyrosine kinase is assayed in Kinase-Glo ATP depletion assay using the synthetic polymer poly(Glu-Tyr, 4:1) (Sigma Chemicals) as a phosphoacceptor substrate. Each reaction mixture consists of a total volume of 10 μl and contains 40 ng of the enzyme, 5 μg of poly(Glu-Tyr), 10 μM of ATP and variable concentrations of test compounds. The mixtures also contain 50 mM Tris-HCl, pH 7.5; 5 mM MgCl2; 5 mM MnCl2; 2 mM DTT and 0.01% Tween 20. The reaction mixtures are incubated at 37° C. for 60 minutes and residual concentration of ATP in the mixture is determined by adding luciferase-containing Kinase-Glo (Promega) development reagent and counting luminescence levels using Fusion Universal Microplate Analyzer (PerkinElmer). Tested compounds are dissolved in dimethyl sulfoxide to a stock concentration of 10 mM and are typically evaluated in the assay at eight concentrations in 1 nM to 20 μM range, each in quadruplicate. […] IC50 values are derived by non-linear regression analysis using Prism 3.0 software (Graphpad Software). Other tyrosine kinases are assayed according to the same protocol after titrating amount of the enzyme to provide optimal signal-to-noise ratio and no more than 30% of total ATP consumption in the reaction conditions used.
The IGF1R tyrosine kinase is assayed in Phosphotyrosine (PT66 or PT 100) AlphaScreen chemiluminescent assay (PerkinElmer) according to the manufacturerer's recommendations. Each kinase reaction mixture consists of a total volume of 15 μl and contains 0.1-1 ng of the enzyme, 7 ng of biotinylated poly(Glu-Tyr) (Cis-Bio), 10 μM of ATP and variable concentrations of test compounds. The mixtures also contain 50 mM Tris-HCl, pH 7.5; 5 mM MgCl2; 5 mM MnCl2; 2 mM DTT and 0.01% Tween 20. The reaction mixtures are incubated at room temperature for 30 minutes. Ten (10) μl of the mixture of […] and donor beads (as supplied by the manufacturer) is then added to the reaction and the incubation is continued for an additional 60 minutes.
Background: Kinase-Glo reads ATP consumption through a luciferase reaction.

T1 sequence (P04629 510-781 limits assumed, species assumed): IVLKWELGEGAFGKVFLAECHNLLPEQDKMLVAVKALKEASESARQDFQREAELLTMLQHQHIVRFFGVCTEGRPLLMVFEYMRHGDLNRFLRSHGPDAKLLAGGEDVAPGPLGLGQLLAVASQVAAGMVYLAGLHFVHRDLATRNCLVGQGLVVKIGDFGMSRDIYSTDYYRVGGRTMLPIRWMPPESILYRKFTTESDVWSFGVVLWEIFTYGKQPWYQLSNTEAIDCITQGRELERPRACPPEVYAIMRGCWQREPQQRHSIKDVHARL

The term IC50 denotes the concentration that inhibits the measured activity by half. Regarding `COc1ccc(OC[C@H](O)CNc2cc[nH]c(=O)c2-c2nc3cc4c(cc3[nH]2)C(=O)N(C2CCN(C)CC2)C4=O)c(OC)c1OC` [compound 93], in assay [1], the IC50 was in the range of 5 to 15 µM. Regarding `CN1CCC(N2C(=O)c3cc4nc(-c5c(NC[C@@H](O)c6cccc(Cl)c6)cc[nH]c5=O)[nH]c4cc3C2=O)CC1` [compound 1], the IC50 in assay [1] lay within 5 to 15 µM.

Take `Cc1cc(C)c(OC[C@H](O)CNc2cc[nH]c(=O)c2-c2nc3cc4c(cc3[nH]2)C(=O)N(C2CCN(C)CC2)C4=O)cc1Cl` [compound 108]: the IC50 in assay [1] lay within 5 to 15 µM.

For the compound `Cc1ccc(OC[C@H](O)CNc2cc[nH]c(=O)c2-c2nc3c(C)c4c(cc3[nH]2)CN(C2CCN(C)CC2)C4=O)c(C)c1` [compound 140], the results for the half-inhibitory concentration (IC50) in assay [2] and in assay [1] were over 15 µM and 5 to 15 µM, respectively.

With `Cc1ccc(OC[C@H](O)CNc2cc[nH]c(=O)c2-c2nc3cc4c(c(C)c3[nH]2)CN(C2CCN(C)CC2)C4=O)c(C)c1` [compound 132], the IC50 in assay [2] and in assay [1] was over 15 µM in each case.

For `Cc1ccc(OC[C@H](O)CNc2cc[nH]c(=O)c2-c2nc3cc4c(cc3[nH]2)C(=O)N(C2CCN(C)CC2)C4=O)c(C)c1` [compound 59], the IC50 in assay [1] lay within 5 to 15 µM.

As for `Cc1c(Cl)cccc1OC[C@H](O)CNc1cc[nH]c(=O)c1-c1nc2cc3c(cc2[nH]1)C(=O)N(C1CCN(C)CC1)C3=O` [compound 94], the IC50 in assay [1] was over 15 µM.

Regarding `C[C@H](O)CN1C(=O)c2cc3nc(-c4c(NC[C@@H](O)c5cccc(Cl)c5)cc[nH]c4=O)[nH]c3cc2C1=O` [compound 31], in assay [1], the IC50 lay in the range of 5 to 15 µM. As to `CCN1CCC(N2Cc3cc4nc(-c5c(NC[C@@H](O)COc6ccc(C)cc6C)cc[nH]c5=O)[nH]c4cc3C2=O)CC1` [compound 144], the IC50 in assay [2] and in assay [1] was 5 to 15 µM each time. On to `CN1CCC(N2C(=O)c3cc4nc(-c5c(NC[C@@H](O)COc6cccc(C(F)(F)F)c6)cc[nH]c5=O)[nH]c4cc3C2=O)CC1` [compound 97], for which the IC50 in assay [1] was over 15 µM. Take `CN1CCC(N2C(=O)c3cc4nc(-c5c(NC[C@@H](O)COc6c(F)ccc(Cl)c6F)cc[nH]c5=O)[nH]c4cc3C2=O)CC1` [compound 95]: the IC50 in assay [1] is 5 to 15 µM.

Regarding `Cc1ccc(OCC(O)CNc2cc[nH]c(=O)c2-c2nc3cc4c(cc3[nH]2)C(=O)N(C2CCN(C)CC2)C4=O)c(C)c1` (centres unmarked) [compound 15], the IC50 in assay [1] is 5 to 15 µM; in assay [3], under 0.5 µM.

As to `CCc1cc(C)ccc1OC[C@H](O)CNc1cc[nH]c(=O)c1-c1nc2cc3c(cc2[nH]1)CN(C1CCN(C)CC1)C3=O` [compound 141], the IC50 in assay [2] and in assay [1] was over 15 µM in each case. For `Cc1ccc(OC[C@H](O)CNc2cc[nH]c(=O)c2-c2nc3cc4c(cc3[nH]2)CN(C2CCN(C)CC2)C4=O)c(C)c1` [compound 130], the IC50 in assay [2] and in assay [1] was over 15 µM throughout. Turning to `CCN1CCC(N2C(=O)c3cc4nc(-c5c(NC[C@@H](O)COc6ccc(C)cc6C)cc[nH]c5=O)[nH]c4cc3C2=O)CC1` [compound 143], the IC50 in assay [2] and in assay [1] was over 15 µM in each case.

With `Cc1ccc(OC[C@H](O)CNc2cc[nH]c(=O)c2-c2nc3c(C)c4c(cc3[nH]2)C(=O)N(C2CCN(C)CC2)C4)c(C)c1` [compound 139], the IC50 in assay [2] and in assay [1] was over 15 µM each time. Consider `Cc1ccc(OC[C@H](O)CNc2cc[nH]c(=O)c2-c2nc3cc4c(cc3[nH]2)C(=O)N(C2CCNCC2)C4=O)c(C)c1` [compound 142], for which the IC50 in assay [2] and in assay [1] was 5 to 15 µM in each case. `Cc1ccc2c(ccn2C[C@H](O)CNc2cc[nH]c(=O)c2-c2nc3cc4c(cc3[nH]2)C(=O)N(C2CCN(C)CC2)C4=O)c1` [compound 131]: the values for the IC50 in assay [2], in assay [1] and in assay [3] were 5 to 15 µM, 0.5 to 5 µM and under 0.5 µM, respectively.

(Values after patent publication US8063225B2, “Tricyclic compound derivatives useful in the treatment of neoplastic diseases, inflammatory disorders and immunomodulatory disorders” (Chembridge Corporation, priority 2006, dated 2011).)
